# System: NMU-induced mammary tumors
# Experiment: Prophylaxis of NMU-induced mammary tumors after intraductal injection
# Assay type: in vivo, Sprague Dawley rats
# Details: rat mammary glands, NMU 50 mg/kg i.v. after treatment, monitored 8 months
# Experimental: The mammary glands (6 on each side) of six virgin 50 day old Sprague Dawley rats were injected with AdHS-tk on the left side and trypan blue on the right side or left untreated. One rat remained completely untreated with the virus or GCV and served as a positive control for NMU-induced tumorigenesis. On the day of surgery, rats were given an intramuscular injection of 5 μg estradiol valerate and were anesthetized with an isofluorane/O2 mixture. The nipples were cannulated with a 33 gauge needle. Twenty μl of AdHS-tk diluted in trypan blue carrier (1 mM MgCl2, 20 μg/ml polybrene in 10% glycerol, 0.4% trypan blue in saline) at a concentration of 5×10^7 particles/μl were injected into the duct. Carrier control mammary glands received 20 μl of trypan blue carrier alone. An animal was considered treated when at least three glands were successfully injected with trypan blue and another three glands were successfully injected with AdHS-tk. The remaining glands were left untreated. Twelve hrs later, the rats were injected with 125 mg/kg body weight GCV twice daily for three days. […] Five to seven days after GCV treatment, the rats were given an intravenous injection of NMU dissolved in 0.05% acetic acid (Ash Stevens, CO; 50 mg NMU/kg body weight) and were subsequently monitored for general health and the appearance of tumors at weekly intervals for 8 months.
smiles,measurement,value
"Nc1nc(O)c2ncn(COC(CO)CO)c2n1 [Ganciclovir, ganciclovir]",% of Glands with Tumor,25.0%
same,No. of Tumors,5

# Reference: US7196070B2, “Prophylactic and therapeutic treatment of the ductal epithelium of a mammary gland for cancer” (priority 1995, dated 2007)
